Reference: patent US12052991B2, “Substituted pyridinyloxybenzenes and salts thereof and use thereof as herbicidal agents” (Bayer Aktiengesellschaft, priority 2018, dated 2024)

Legend:
Assay type in all cases: in vivo
Stellaria media (STEME) [1] = experiment: Herbicidal post-emergence action (Table B8); settings: visual rating about 3 weeks after treatment, 100% = plants have died, 0% = like control plants
Method in brief: (§1)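 Post-emergence spray, one-leaf stage (2–3 wk after sowing), sandy loam, greenhouse. WP/EC in water + 0.5% additive, 600 L/ha, 1280 or 320 g/ha. Visual % activity vs untreated after ~3 wk (0% = like control, 100% = plants dead).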

Stellaria media (STEME) [2] = experiment: Herbicidal pre-emergence action, test C (Table C8); settings: visual scoring after about 3 weeks, 100% = plants have died, 0% = like control plants
Method in brief: (§2)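 Visual scoring after about 3 weeks in the greenhouse gave % activity relative to untreated controls, 100% meaning plants died. Compounds, as WP or EC with 0.5% additive, had been applied to covering soil at 1280 or 320 g/ha in 600 L/ha water.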

[3] = system: harmful plants ABUTH, AMARE, ECHCG, LOLRI, MATIN, POAAN, SETVI, STEME, ALOMY, DIGSA, KCHSC and VERPE; experiment: Herbicidal pre-emergence action (test C), summary of Tables C1-C12; settings: application rate of 1280 or 320 g of active ingredient per hectare; summary in words
Method in brief: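 Visual % damage versus untreated plants (0% = like control, 100% = died) was scored after about 3 weeks in the greenhouse. Before emergence, seeds sown in sandy loam got a soil-surface spray of compound as WP or EC plus 0.5% additive, using 600 L/ha water at rates of 1280 or 320 g/ha.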

[4] = system: Abutilon theophrasti (ABUTH); experiment: Herbicidal post-emergence action (Table B5); settings: rated visually after about 3 weeks, 100% = plants have died, 0% = like control plants
Method in brief: as §1

Poa annua (POAAN) [5] = experiment: Herbicidal pre-emergence action, test C (Table C3); settings: visual scoring after about 3 weeks, 100% = plants have died, 0% = like control plants
Method in brief: as §2

[6] = system: Echinochloa crus-galli (ECHCG); experiment: Herbicidal post-emergence action (Table B1); settings: rated visually after about 3 weeks, 100% = plants have died, 0% = like control plants
Method in brief: as §1

Setaria viridis (SETVI) [7] = experiment: Herbicidal post-emergence action (Table B4); settings: rated visually after about 3 weeks, 100% = plants have died, 0% = like control plants
Method in brief: as §1

Poa annua (POAAN) [8] = experiment: Herbicidal post-emergence action (Table B3); settings: rated visually after about 3 weeks, 100% = plants have died, 0% = like control plants
Method in brief: as §1

Lolium rigidum (LOLRI) [9] = experiment: Herbicidal pre-emergence action, test C (Table C2); settings: visual scoring after about 3 weeks, 100% = plants have died, 0% = like control plants
Method in brief: as §2

[10] = system: Abutilon theophrasti (ABUTH); experiment: Herbicidal pre-emergence action, test C (Table C5); settings: visual scoring after about 3 weeks, 100% = plants have died, 0% = like control plants
Method in brief: as §2

[11] = system: Echinochloa crus-galli (ECHCG); experiment: Herbicidal pre-emergence action, test C (Table C1); settings: visual scoring after about 3 weeks, 100% = plants have died, 0% = like control plants
Method in brief: as §2

Lolium rigidum (LOLRI) [12] = experiment: Herbicidal post-emergence action (Table B2); settings: rated visually after about 3 weeks, 100% = plants have died, 0% = like control plants
Method in brief: as §1

[13] = system: Amaranthus retroflexus (AMARE); experiment: Herbicidal pre-emergence action, test C (Table C6); settings: visual scoring after about 3 weeks, 100% = plants have died, 0% = like control plants
Method in brief: as §2

[14] = system: Amaranthus retroflexus (AMARE); experiment: Herbicidal post-emergence action (Table B6); settings: visual rating about 3 weeks after treatment, 100% = plants have died, 0% = like control plants
Method in brief: as §1

[15] = system: harmful plants ABUTH, AMARE, ECHCG, LOLRI, MATIN, POAAN, SETVI, STEME, ALOMY, DIGSA, KCHSC and VERPE; experiment: Herbicidal post-emergence action, summary of Tables B1-B12; settings: application rate of 1280 or 320 g of active ingredient per hectare; summary in words
Method in brief: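 Activity scored by eye roughly 3 weeks post-treatment against untreated plants, from 0% (no effect) to 100% (plants dead). Application rates were 1280 or 320 g/ha, as aqueous WP/EC spray plus 0.5% additive at 600 L/ha, onto one-leaf-stage weeds grown 2–3 weeks in sandy loam.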

Setaria viridis (SETVI) [16] = experiment: Herbicidal pre-emergence action, test C (Table C4); settings: visual scoring after about 3 weeks, 100% = plants have died, 0% = like control plants
Method in brief: as §2

| SMILES | Post-emergence action against Stellaria media (STEME) (Stellaria media (STEME) [1]; dosage 320 g/ha) [%] | Post-emergence action against Stellaria media (STEME) (Stellaria media (STEME) [1]; dosage 1280 g/ha) [%] | Pre-emergence action against Stellaria media (STEME) (Stellaria media (STEME) [2]; dosage 320 g/ha) [%] | Pre-emergence action against Stellaria media (STEME) (Stellaria media (STEME) [2]; dosage 1280 g/ha) [%] | herbicidal activity against the harmful plants of Tables C1-C12 in pre-emergence treatment [3] | Post-emergence action against Abutilon theophrasti (ABUTH) ([4]; 320 g/ha) [%] | Post-emergence action against Abutilon theophrasti (ABUTH) ([4]; 1280 g/ha) [%] | Pre-emergence action against Poa annua (POAAN) (Poa annua (POAAN) [5]; dosage 320 g/ha) [%] | Pre-emergence action against Poa annua (POAAN) (Poa annua (POAAN) [5]; dosage 1280 g/ha) [%] | Post-emergence action against Echinochloa crus-galli (ECHCG) ([6]; 320 g/ha) [%] | Post-emergence action against Echinochloa crus-galli (ECHCG) ([6]; 1280 g/ha) [%] | Post-emergence action against Setaria viridis (SETVI) (Setaria viridis (SETVI) [7]; 1280 g/ha) [%] | Post-emergence action against Poa annua (POAAN) (Poa annua (POAAN) [8]; 320 g/ha) [%] | Post-emergence action against Poa annua (POAAN) (Poa annua (POAAN) [8]; 1280 g/ha) [%] | Pre-emergence action against Lolium rigidum (LOLRI) (Lolium rigidum (LOLRI) [9]; dosage 1280 g/ha) [%] | Pre-emergence action against Abutilon theophrasti (ABUTH) ([10]; dosage 320 g/ha) [%] | Pre-emergence action against Abutilon theophrasti (ABUTH) ([10]; dosage 1280 g/ha) [%] | Pre-emergence action against Echinochloa crus-galli (ECHCG) ([11]; dosage 1280 g/ha) [%] | Post-emergence action against Lolium rigidum (LOLRI) (Lolium rigidum (LOLRI) [12]; 1280 g/ha) [%] | Pre-emergence action against Amaranthus retroflexus (AMARE) ([13]; dosage 320 g/ha) [%] | also measured |
| --- | --- | --- | --- | --- | --- | --- | --- | --- | --- | --- | --- | --- | --- | --- | --- | --- | --- | --- | --- | --- | --- |
| Fc1cc(Cl)cnc1Oc1cccc(F)c1-c1cc(C(F)F)no1 [Example 1-19] | 100 | 100 | 100 | 100 | very good herbicidal activity | 100 | 100 | 100 | 100 | 100 | 100 | 100 | 100 | 100 | 100 | 100 | 100 | 100 | 100 | 100 | Post-emergence action against Setaria viridis (SETVI) (Setaria viridis (SETVI) [7]; 320 g/ha): 100%; Pre-emergence action against Lolium rigidum (LOLRI) (Lolium rigidum (LOLRI) [9]; dosage 320 g/ha): 100%; Pre-emergence action against Echinochloa crus-galli (ECHCG) ([11]; dosage 320 g/ha): 100%; Post-emergence action against Lolium rigidum (LOLRI) (Lolium rigidum (LOLRI) [12]; 320 g/ha): 100%; Pre-emergence action against Amaranthus retroflexus (AMARE) ([13]; dosage 1280 g/ha): 100%; Post-emergence action against Amaranthus retroflexus (AMARE) ([14]; dosage 320 g/ha): 100%; Post-emergence action against Amaranthus retroflexus (AMARE) ([14]; dosage 1280 g/ha): 100%; herbicidal activity against the harmful plants of Tables B1-B12 in post-emergence treatment [15]: very good herbicidal activity; Pre-emergence action against Setaria viridis (SETVI) (Setaria viridis (SETVI) [16]; dosage 320 g/ha): 100%; Pre-emergence action against Setaria viridis (SETVI) (Setaria viridis (SETVI) [16]; dosage 1280 g/ha): 100% |
| FC(F)c1cc(-c2ccccc2Oc2ccc(Cl)cn2)on1 [Example 1-35] | 100 | 100 | 100 | 100 | very good herbicidal activity | 100 | 100 | 100 | 100 | 100 | 100 | 100 | 100 | 100 | 90 | 100 | 100 | 100 | 100 | 100 | Pre-emergence action against Amaranthus retroflexus (AMARE) ([13]; dosage 1280 g/ha): 100%; Post-emergence action against Amaranthus retroflexus (AMARE) ([14]; dosage 320 g/ha): 100%; Post-emergence action against Amaranthus retroflexus (AMARE) ([14]; dosage 1280 g/ha): 100%; herbicidal activity against the harmful plants of Tables B1-B12 in post-emergence treatment [15]: very good herbicidal activity; Pre-emergence action against Setaria viridis (SETVI) (Setaria viridis (SETVI) [16]; dosage 320 g/ha): 100%; Pre-emergence action against Setaria viridis (SETVI) (Setaria viridis (SETVI) [16]; dosage 1280 g/ha): 100% |
